Source: patent EP1513800B1, “N-BENZOYLUREIDOCINNAMATE DERIVATIVES, METHOD FOR PRODUCTION AND USE THEREOF” (Sanofi-Aventis Deutschland GmbH, priority 2002, dated 2003)

System: Humane Glykogenphosphorylase a
Assay: Glycogen phosphorylase a activity test (reverse direction, release of inorganic phosphate from glucose-1-phosphate)
Assay type: biochemical
Conditions: 10 µM test substance; in vitro; 40 min at room temperature; absorbance at 820 nm; duplicate determinations
Description: Glykogenphosphorylase a Aktivitätstest
Der Effekt von Verbindungen auf die Aktivität der aktiven Form der Glykogenphosphorylase (GPa) wurde in der umgekehrten Richtung, durch Verfolgen der Glykogensynthese aus Glukose-1-Phosphat an Hand der Bestimmung der Freisetzung von anorganischem Phosphat, gemessen. […] Prüfsubstanzen wurden als 10 mM Lösung in DMSO zubereitet und auf 50 µM mit Pufferlösung T verdünnt. Zu 10 µl dieser Lösung wurden 10 µl 37,5 mM Glukose, gelöst in Pufferlösung T und 5 mg/mL Glykogen, sowie 10 µl einer Lösung von humaner Glykogenphosphorylase a (10 µg Protein/ml) und 20 µl Glukose-1-Phosphat, 2,5 mM zugegeben. Der basale Wert der Glykogenphosphorylase a Aktivität in Abwesenheit von Prüfsubstanz wurde durch Zugabe von 10 µl Pufferlösung T (0,1 % DMSO) bestimmt. […] Zur Bestimmung der Hintergrundsabsorption wurde in einem separaten Ansatz die Stop-Lösung unmittelbar nach Zugabe der Glukose-1-Phosphatlösung zugegeben. Dieser Test wurde mit einer Konzentrationen von 10 µM der Prüfsubstanz durchgeführt, um die jeweilige Hemmung der Glykogenphosphorylase a in vitro durch die Prüfsubstanz zu bestimmen. Tabelle 2: Biologische Aktivität

| SMILES | % Inhibition bei 10 µM [%] |
| --- | --- |
| O=C(O)/C=C/c1ccccc1NC(=O)NC(=O)c1cc(F)c(F)cc1Cl [compound 2, 3-{2-[3-(2-Chloro-4,5-difluorobenzoyl)-ureido]-phenyl}-acrylsäure] | 101 |
| COC(=O)C=Cc1cc(C(=O)O)ccc1NC(=O)NC(=O)c1cc(F)c(F)cc1Cl [compound 12, 4-[3-(2-Chloro-4,5-difluorobenzoyl)-ureido]-3-(2-methoxycarbonyl-vinyl)-benzoesäure] | 104 |
